Test results: patent publication US4975451A, “Insecticidal cyclopropyl di(aryl) 2-butenes” (FMC Corporation, priority 1989, dated 1990)
Converted amounts (≈) assume the structure as drawn.

Legend:
Mexican bean beetle = test: Foliar evaluation, Mexican bean beetle; type: in vivo; conditions: Epilachna varivestis, 48 hours, read-out: % Kill MBB; for mortality at 100 ppm: rate 100 ppm
Procedure: (§1) The insecticidal activity of the pyrethroid-like compounds of this invention as identified in Table 1, appended, was evaluated as follows:
(§2) Compounds within the scope of this invention were tested by foliar application at various concentrations in aqueous solutions containing 10% (volume/volume) acetone and water. Insect species utilized included the cabbage looper (Trichoplusia ni), Mexican bean beetle (Epilachna varivestis), pea aphid (Acryrthosiphon pisum), tobacco budworm (Heliothis virescens) and twospotted spider mite (Tetranychus urticae).
(§3) For all insects except the pea aphid, pinto beans (Phaseolus vulgaris) plants were treated with the test solutions. The test solutions were applied with a sprayer to the upper and lower surfaces of the plant leaves to runoff. The plants were then allowed to dry and were severed at the base of the stem before being placed in cups. Ten second instar individuals of the appropriate insect species, except the tobacco budworm, were placed in each cup and the cup covered. Tests with the tobacco budworm used four replicates with each replicate containing five second instar tobacco budworms. In all tests, mortality was read 48 hours later.

southern corn rootworm = test: Soil evaluation, southern corn rootworm; type: in vivo, Diabrotica undecimounctata Howardi; conditions: rate 7.5 ppm, 48 hours, read-out: Initial % Kill SCR
Procedure: Soil evaluation of insecticidal activity of test compounds were conducted against the southern corn rootworm (Diabrotica undecimounctata Howardi). A 0.25 ml aliquot of a stock solution containing 64 mg of the candidate insecticide in 4.0 ml of acetone was pipetted into 41 mL of distilled water containing 0.1% octylphenoxypolyethoxyethanol emulsifier. […] In all cases, four mL of each test solution was pipetted into a 4 ounce specimen cup containing two two-day-old corn sprouts completely covered by 26 grams of dry sandy soil. The treated soil in each cup was allowed to stand uncovered in a hood to evaporate the acetone. Each cup was capped and the soil in each cup was mixed thoroughly. The cap of each cup was removed, and ten second instar southern corn rootworm larvae were added to each cup. The cups were each covered with lids perforated with two small holes to allow for ventilation. The cups were then held under fluorescent light (12 hours light: 12 hours dark) at 24°-26° C. for 48 hours. An untreated check and an appropriate standard were included in each test. Two replicates were run for each chemical treatment. The unaffected larvae from the soil of each cup were extracted by placing the contents of each cup into a modified Berlese polyethylene funnel fitted with an 18-mesh screen. The funnels were placed over containers of an aqueous detergent solution. Incandescent lights (100 watts) were placed 36 cm above the soil in each funnel. The heat from these lights slowly dried the soil causing larvae that had not been affected by the candidate insecticide to emerge from the soil and drop out of the funnel into the detergent solution. The percent mortality was determined by comparing the number of live larvae in the detergent solution with the total number of larvae infested during the initiation of the test. Percent mortality was determined in this manner for each concentration.

twospotted spider mite = test: Foliar acaricidal test, twospotted spider mite (susceptible); type: in vivo; conditions: Tetranychus urticae, 48 hours, read-out: % Kill TSM-S; for mortality at 100 ppm: rate 100 ppm; for mortality at 500 ppm: rate 500 ppm
Procedure: as §1, §2
Acaricidal tests were performed using the following procedure: Leaves infested with adult twospotted spider mites (Tetranvchus urticae) were removed from culture plants and cut into segments containing 50-75 female mites. Each segment was placed on the upper leaf surface of a whole pinto bean plant. After the mites had migrated to the under surfaces of the leaves, the leaf segments used to infest were removed, and each plant was sprayed with test chemicals as described above. After the plants had dried, the entire plant and pot were placed in metal trays in a hood, a supply of water in the tray keeping the plants turgid. After 48 hours the living and dead mites were counted, and percent mortality was calculated.

tobacco budworm = test: Foliar evaluation, tobacco budworm; type: in vivo; conditions: Heliothis virescens, 48 hours, read-out: % Kill TBW; for mortality at 100 ppm: rate 100 ppm; for mortality at 500 ppm: rate 500 ppm
Procedure: as §1, §2, §3

cabbage looper = test: Foliar evaluation, cabbage looper; type: in vivo; conditions: Trichoplusia ni, 48 hours, read-out: % Kill CL; for mortality at 100 ppm: rate 100 ppm; for mortality at 500 ppm: rate 500 ppm
Procedure: as §1, §2, §3

pea aphid = test: Foliar evaluation, pea aphid; type: in vivo, Acryrthosiphon pisum; conditions: Acyrthosiphon pisum, 48 hours, read-out: % Kill PA; for mortality at 100 ppm: rate 100 ppm; for mortality at 500 ppm: rate 500 ppm
Procedure: as §1, §2, §3
In the case of the pea aphid, fava bean (Vicia faba) was substituted for pinto bean. The treated, potted plants were placed in cups infested with ten individuals and covered. Mortality was read 48 hours later.

Fish toxicity, tilapia = type: in vivo; conditions: water; Tilapia (Oreochromis niloticus), 48 hour test
Procedure: Compounds of the present invention were tested for toxicity to fish using one inch long tilapia (Oreochromis niloticus). Prior to the test the tilapia were acclimated for one week in an aquarium, during which time they were fed with a ration of rice bran and pelletized hog feed. The water in the aquarium was changed daily with distilled water.
Stock solutions of each of the test chemicals were prepared by dissolving the weighed technical material in acetone and adding distilled water to provide a 1% acetone in water solution.
The test solutions were prepared by diluting the appropriate amount of a stock solution to 25 mL with distilled water. The appropriate amount of stock solution was determined for the concentration required in a final volume of 800 mL of test solution. The test chemicals were tested in triplicate at concentrations ranging from 0.005 ppm to 20 ppm. The actual concentrations of the test chemicals needed to determine LC50 values were determined by fish toxicity-range of application studies prior to the LC50 test. Each 25 mL test chemical solution was added to a one liter aquarium containing 500 mL of 0.01% (v/v) ethylene glycol in water. The aquariums were shaken gently and then allowed to stand for one hour. After this time the tilapia were added by first placing five fish in a container with 275 mL of distilled water and then pouring the water and fish into each aquarium. The dead and live fish were counted after 24 and 48 hours. Any fish observed to be dead was removed from its aquarium immediately. Upon completion of the 48 hour test period, the lethal concentration of each compound tested that would give 50% mortality to the tilapia was determined.

Structure (SMILES) | mortality at 100 ppm (Mexican bean beetle) [%] | mortality at 7.5 ppm (southern corn rootworm) [%] | mortality at 100 ppm (twospotted spider mite) [%] | mortality at 100 ppm (tobacco budworm) [%] | mortality at 100 ppm (cabbage looper) [%] | mortality at 100 ppm (pea aphid) [%] | LC50 at 48 h (Fish toxicity, tilapia) [µg/mL] | further results
Fc1ccc(CC=CC(c2ccc(Cl)cc2)C2CC2)cc1Oc1ccccc1 (stereo not shown) [Compound 2, 1-cyclopropyl-1-(4-chlorophenyl)-4-(4-fluoro-3-phenoxyphenyl)-2-butene] | 100 | 45 | 0 | 100 | 100 | 80 | 7.5 to 10 (≈ 19.1 to 25.5 µM) | 
Clc1ccc(C(C=CCc2cccc(Oc3ccccc3)c2)C2CC2)cc1 (stereo not shown) [Compound 1] | 100 | 45 | 2 | 100 | 100 | 75 | 3 to 5 (≈ 8 to 13.3 µM) | 
Cc1c(CC=CC(c2ccc(OCC3CC3)cc2)C2CC2)cccc1-c1ccccc1 (stereo not shown) [Compound 8] |  |  |  |  |  |  |  | mortality at 500 ppm (twospotted spider mite): 0%; mortality at 500 ppm (tobacco budworm): 22%; mortality at 500 ppm (cabbage looper): 100%; mortality at 500 ppm (pea aphid): 5%
Fc1ccc(CC=CC(c2ccc(C(F)(F)F)cc2)C2CC2)cc1Oc1ccccc1 (stereo not shown) [Compound 4] | 100 |  | 90 | 100 | 100 | 90 |  | 
Cc1c(CC=CC(c2ccc(Cl)cc2)C2CC2)cccc1-c1ccccc1 (stereo not shown) [Compound 7] |  | 50 |  |  |  |  |  | mortality at 500 ppm (Mexican bean beetle; rate 500 ppm): 100%; mortality at 500 ppm (twospotted spider mite): 7%; mortality at 500 ppm (tobacco budworm): 100%; mortality at 500 ppm (cabbage looper): 100%; mortality at 500 ppm (pea aphid): 60%
Fc1ccc(CC=CC(c2ccc(OC(F)(F)F)cc2)C2CC2)cc1Oc1ccccc1 (stereo not shown) [Compound 6, 1-cyclopropyl-1-(4-trifluoromethoxyphenyl)-4-(4-fluoro-3-phenoxyphenyl)-2-butene] | 100 | 70 | 99 | 100 | 100 | 85 | 9 (≈ 20.3 µM) | 
FC(F)(F)c1ccc(C(C=CCc2cccc(Oc3ccccc3)c2)C2CC2)cc1 (stereo not shown) [Compound 3] | 100 | 60 | 90 | 100 | 90 | 45 | 5 to 7.5 (≈ 12.2 to 18.4 µM) | 
CCOc1ccc(C(C=CCc2cccc(-c3ccccc3)c2C)C2CC2)cc1 (stereo not shown) [Compound 9] |  |  |  |  |  |  |  | mortality at 1000 ppm (Mexican bean beetle; rate 1000 ppm): 90%; mortality at 1000 ppm (twospotted spider mite; rate 1000 ppm): 100%; mortality at 1000 ppm (cabbage looper; rate 1000 ppm): 100%; mortality at 1000 ppm (pea aphid; rate 1000 ppm): 100%
CC1(C)C(C=C(Cl)Cl)C1C(=O)OC(C#N)c1cccc(Oc2ccccc2)c1 (stereo not shown) [cypermethrin, reference compound] |  |  |  |  |  |  | 0.02 (≈ 0.048 µM) | 
FC(F)(F)Oc1ccc(C(C=CCc2cccc(Oc3ccccc3)c2)C2CC2)cc1 (stereo not shown) [Compound 5] | 100 | 50 | 100 | 80 | 85 | 100 | 1 to 3 (≈ 2.36 to 7.07 µM) | 
